Measured values taken from US11053250B2, “Pyrrolo[1,2-b]pyridazine derivatives” (Gilead Sciences, Inc., priority 2018, dated 2021).

Assays:
TNFα = test: IRAK4 Monocyte TNFα Cell Based Assay; conditions: cryopreserved human monocytes, LPS 50 pg/ml stimulation, TNFα by TR-FRET
Summary of the method: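 Cells (5,000/well) preincubated with compound 1 h at 37° C (0.1% DMSO), then stimulated 4 h with 50 pg/ml LPS. Supernatant TNFα quantified by TR-FRET (665/615 nm ratio). Percent of control scaled between unstimulated (0%) and LPS-stimulated (100%) wells.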

IRAK4 enzyme = IRAK4 enzyme (Homo sapiens (Human), UniProt Q9NWZ3); test: IRAK4 Biochemical Assay (TR-FRET/HTRF); conditions: 0.75 nM IRAK4, 500 μM ATP, STK1 peptide
Summary of the method: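 Compound was preincubated 15 min with 0.75 nM IRAK4 and 2 µM STK1 peptide. Reaction ran 120 min at room temperature with 500 µM ATP in HEPES pH 7.0 buffer (5 mM MgCl2, 1 mM DTT), then HTRF detection of phosphopeptide as the 665/615 nm ratio. % inhibition is relative to no-inhibitor and saturating-staurosporine controls.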

Sequence of IRAK4 enzyme (Q9NWZ3 whole entry): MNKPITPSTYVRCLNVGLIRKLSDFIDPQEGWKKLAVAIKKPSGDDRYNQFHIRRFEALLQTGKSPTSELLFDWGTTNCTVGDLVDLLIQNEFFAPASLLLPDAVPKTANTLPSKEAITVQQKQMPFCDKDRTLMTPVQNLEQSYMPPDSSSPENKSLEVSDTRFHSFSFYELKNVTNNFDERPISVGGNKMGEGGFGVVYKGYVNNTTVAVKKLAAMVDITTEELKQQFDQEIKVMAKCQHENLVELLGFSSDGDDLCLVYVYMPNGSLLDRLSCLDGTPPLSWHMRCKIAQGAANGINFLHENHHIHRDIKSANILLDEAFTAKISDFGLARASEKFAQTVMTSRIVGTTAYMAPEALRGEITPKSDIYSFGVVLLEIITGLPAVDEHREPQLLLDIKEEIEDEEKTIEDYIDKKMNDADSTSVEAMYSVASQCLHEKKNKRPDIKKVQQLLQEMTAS

| Compound | EC50 (TNFα) | IC50 (IRAK4 enzyme) | EC50 (TNFα; Monocyte) |
| --- | --- | --- | --- |
| CC(=O)N[C@H]1CC[C@H](c2cn(-c3cnc(-c4ccc5cc(C#N)cnn45)cc3NC(C)C)nn2)CC1 [Compound 61, N-((1r,4r)-4-(1-(6-(3-cyanopyrrolo[1,2-b]pyridazin-7-yl)-4-(isopropylamino)pyridin-3-yl)-1H-1,2,3-triazol-4-yl)cyclohexyl)acetamide] | 75 nM | 2 nM |  |
| COC(=O)NC[C@H]1C[C@H](Nc2cc(-c3ccc4cc(C#N)cnn34)ncc2-c2cn(C(F)F)nn2)C1 [Compound 4, methyl (((1r,3r)-3-((2-(3-cyanopyrrolo[1,2-b]pyridazin-7-yl)-5-(1-(difluoromethyl)-1H-1,2,3-triazol-4-yl)pyridin-4-yl)amino)cyclobutyl)methyl)carbamate] | 130 nM | 2 nM |  |
| CC(C)Nc1cc(-c2ccc3cc(C#N)cnn23)ncc1-c1cn(C[C@@H](F)C(C)(C)O)nn1 [Compound 49, (R)-7-(5-(1-(2-fluoro-3-hydroxy-3-methylbutyl)-1H-1,2,3-triazol-4-yl)-4-(isopropylamino)pyridin-2-yl)pyrrolo[1,2-b]pyridazine-3-carbonitrile] |  | < 1 nM | 30 nM |
| CC(C)Nc1cc(-c2ccc3cc(C#N)cnn23)ncc1-c1cn(C)nn1 [Compound 55, 7-(4-(isopropylamino)-5-(1-methyl-1H-1,2,3-triazol-4-yl)pyridin-2-yl)pyrrolo[1,2-b]pyridazine-3-carbonitrile] |  | 2 nM | 162 nM |
| CNc1cc(-c2ccc3cc(C#N)cnn23)ncc1-c1cn([C@H]2CC[C@H](NC(=O)C3CC3)CC2)nn1 [Compound 20, N-((1r,4r)-4-(4-(6-(3-cyanopyrrolo[1,2-b]pyridazin-7-yl)-4-(methylamino)pyridin-3-yl)-1H-1,2,3-triazol-1-yl)cyclohexyl)cyclopropanecarboxamide] | 62 nM | 1 nM |  |
| CC(C)Nc1cc(-c2ccc3cc(C#N)cnn23)ncc1-c1cn(C(C)C)nn1 [Compound 51, 7-(5-(1-isopropyl-1H-1,2,3-triazol-4-yl)-4-(isopropylamino)pyridin-2-yl)pyrrolo[1,2-b]pyridazine-3-carbonitrile] |  | < 1 nM | 132 nM |
| CC(C)Nc1cc(-c2ccc3cc(C#N)cnn23)ncc1-c1cn(C2CCN(C(=O)OC(C)(C)C)CC2)nn1 [Compound 46, tert-butyl 4-(4-(6-(3-cyanopyrrolo[1,2-b]pyridazin-7-yl)-4-(isopropylamino)pyridin-3-yl)-1H-1,2,3-triazol-1-yl)piperidine-1-carboxylate] |  | 7 nM | 534 nM |
